# Experimental data reported in article PMC5274652, “Antagonizing Retinoic Acid Receptors Increases Myeloid Cell Production by Cultured Human Hematopoietic Stem Cells” (Archivum Immunologiae et Therapiae Experimentalis, 2016).
# Assays:
# CD34^+vehuHSCs [1] = experiment: Week-five CAFC and LTC-IC assays of cultured CD34+ve huHSC; type: cell-based, human; details: 100 nM, cells cultured 2 weeks, two donors
# Method: (§1) Assays for week-five cobblestone area forming cells (CAFC), long-term culture-initiating cells (LTC-IC), and colony-forming units (CFU) were performed at the Stem Cell Laboratory at the National Blood Service Stem Cell Laboratory using standard procedures and methods, as described by other workers (de […] and Ploemacher [2001]; Denning-Kendall et al. [1996]; Nicol et al. [1996]). CFU assays were performed using Methocult^TM GF H8444 (StemCell Technologies) and in 35 mm petri dishes. The presence of CAFC was scored as the presence of 12 or more closely associated and small cells that were embedded in the MS5 cell feeder layer and blind by an experienced reader. The nature of CFUs, as to colony-forming unit-granulocyte/erythroid/megakaryocyte/monocyte (CFU-GEMM), colony-forming unit-granulocyte/macrophage (CFU-GM), burst-forming unit-erythroid (BFU-E), and colony-forming unit-erythroid (CFU-E), was scored blind at the service by a person who routinely reads colony assays and is accredited. The nature of colonies was confirmed by sampling colonies and staining cytocentrifuged preparations of cells.
# NB-4 cells = experiment: Differentiation of NB-4 cells (CD11b/CD14 flow cytometry); type: cell-based, human; details: 96 h
# Method: (§2) NB-4 and KG1 cells were obtained from the German Resource Center for Biological Material (DSMZ GmbH, Braunschweig, Germany). The cells were grown in RPMI-1640 medium supplemented with 10 % fetal bovine serum (FBS), 100 U/ml penicillin, and 100 µg/ml streptomycin (Sigma, St Louis, MO, USA). Cells were grown at 37 °C in 5 % CO2.
# (§3) The expression of differentiation markers at the cell surface was determined by flow cytometry. Differentiation of NB-4 and KG1 cells was measured by staining using the monoclonal antibodies CD11b-FITC and CD14-PE and appropriately labeled isotype controls (all from ImmunoTools, Friesoythe, Germany). Differentiation of human CD34^+ve cells was measured by triple-color staining using various cocktails of phycoerythrin-, fluorescein isothyocyanate-, and PerCP-monoclonal antibodies (from Becton–Dickinson, San Jose, CA, USA). The markers used to identify cell populations were as follows: CD45^+ve leukocytes; CD34^+ve/CD133^+ve HSCs; CD33^+ve/CD13^+ve immature myeloid; CD117^+ve myeloblasts and promyelocytes; CD11b^+ve/CD15^+ve mature myeloid; CD11b^+ve/CD65^+ve neutrophils; CD11b^+ve/CD14^+ve monocytes; glycophorin^+ve A erythroid cells; CD61^+ve megakaryoblasts and platelets; CD2^+ve/CD5^+ve/CD7^+ve T cells and NK cells; CD56^+ve NK cells; CD19^+ve/CD20^+ve B cells; and CD10^+ve B lymphocyte progenitors; and present on mature neutrophils and DR^+ve progenitors and present on mature monocytes. The cells were stained with 1 µl of the fluorescently labeled antibody (or the appropriate control immunoglobulin) for 1 h on ice. Next, they were washed with ice-cold phosphate-buffered saline (PBS) and suspended in 0.5 ml PBS supplemented with 0.1 % bovine serum albumin (Sigma, St Louis, MO, USA) prior to analysis on FACS Calibur flow cytometer (Becton–Dickinson, San Jose, CA, USA). The acquisition parameters were set for an isotype control. Cells were analyzed using a FACSCalibur, and data analysis was performed using the CellQuest Pro software (Becton–Dickinson, San Jose, CA, USA).
# KG1 cells = experiment: Differentiation of KG1 cells (CD11b/CD14 flow cytometry); type: cell-based, human; details: 96 h
# Method: as §2, §3
# mice = details: cited from earlier work
# CD34^+vehuHSC = experiment: Cell production and lifespan of CD34+ve huHSC-initiated cultures; type: cell-based, human
# Text: The cells used were CD34^+ve cells purified from the blood of normal human adult donors and post-mobilization of stem cells to the blood. Cells obtained and purified in this manner are used routinely by the National Blood Service Stem Cell Laboratory in Birmingham for bone marrow transplantation. Ethics approval for the use of adult human blood-mobilized stem cells (CD34^+vehuHSC) was from the West Midlands Research Ethics Committee. Informed consent was obtained by the regional National Blood Service Stem Cell Laboratory in Birmingham. CD34^+ve cells were purified to 99 % CD34^+ve, 97 % CD133^+ve, >99 % lineage^−ve (n = 15) using an anti-CD34 monoclonal antibody, immunomagnetic beads, and a CliniMACS magnetic separator. Purified cells were plated at 5 × 10^5 cells/ml in microtiter wells in 200 μl of either RPMI-1640 medium (R and D Systems, Abingdon, UK) or HPGM^TM hematopoietic growth medium (Lonza, UK) containing either 10 % FBS or 10 % human serum, antibiotics (100 U/ml penicillin and 100 μg/ml streptomycin) and stem cell factor (SCF), interleukin (IL)-3, and granulocyte-colony stimulating factor (G-CSF) (all from R and D Systems Abingdon, UK) as stated in the results. Cultures were fed every 2–3 days (with fresh compound), split into microtiter wells, and then expanded into 2 ml Costar wells to maintain a cell density of between 2.5 and 10 × 10^5 cells/ml. Cells were grown at 37 °C in 5 % CO2. Viable cells were enumerated by phase contrast microscopy (400× magnification).
# as §3
# CD34^+vehuHSCs [2] = details: 100 nM, 2 weeks, 2 donors
# Method: as §1
smiles,measurement,setting,value
CCc1ccc(C2=CC(C)(C)Sc3ccc(C#Cc4ccc(C(=O)O)cc4)cc32)cc1 [AGN194310],presence of week-five CAFC and LTC-IC,CD34^+vehuHSCs [1],only present in pan-RAR-antagonized wells
same,effect on differentiation of NB-4 cells,"NB-4 cells; 100 nM with 10 nM 1,25D, compared with 1,25D alone",did not have an appreciable effect
same,effect on differentiation of NB-4 cells,"NB-4 cells; 100 nM, used alone",no effect
same,effect on differentiation of KG1 cells,"KG1 cells; 100 nM together with 10 nM 1,25D",no effect
same,effect on differentiation of KG1 cells,"KG1 cells; 100 nM, used alone",no effect
same,expansion of granulopoiesis in knockout mice lacking the receptor for G-CSF,"mice; G-CSFR knockout mice, ref Chee et al. 2013",not seen
same,effect on myeloid cells after administration to mice,"mice; mice, ref Walkley et al. 2002, Chee et al. 2013",increases in myeloid progenitor cells and mature myeloid cells
same,cells produced versus control cultures,"CD34^+vehuHSC; 10 nM, by day 20, 10 % FBS, SCF, IL-3",around fourfold more cells
same,time for which cultures were maintained,"CD34^+vehuHSC; 10 nM, 10 % FBS, SCF, IL-3, control cultures expire by day 30",≤ 55 days
same,kinetic of cell production compared with 10 nM,"CD34^+vehuHSC; 100 nM, data not shown",almost identical kinetic
same,effect on rate of myeloid cell differentiation,CD34^+vehuHSC; CD34+ve huHSC cultures,did not slow down myeloid cell differentiation
same,prolonged lifespan of cultures,"CD34^+vehuHSC; human HSCs supplemented with stem cell factor ± interleukin 3, abstract",up to 55 days
same,BFU-E together with CFU-E as share of the total colony-forming units,CD34^+vehuHSCs [2]; control 7 %,41%
same,CFU-GM as share of the total colony-forming units,CD34^+vehuHSCs [2]; control 93 %,56%
same,CFU-GEMM as share of the total colony-forming units,CD34^+vehuHSCs [2]; control not detected,3%
